From patent publication US20250214977A1, “STAT6 INHIBITORS AND USES THEREOF” (Kymera Therapeutics, Inc., priority 2024, published 2025)

test system: Phosphorylation of STAT6 in human A549 cells; test: Phosphorylated STAT6 (pSTAT6) flow cytometry assay in human A549 cells; format: cell-based; settings: read-out: STAT6 IL4 pSTAT6 assay in A549 cells: Average IC50
From the text: Example 3. Phosphorylated STAT6 (pSTAT6) Flow Cytometry Assay in Human A549 Cells
Phosphorylation of STAT6 in human A549 cells was quantitatively measured using flow cytometry technology.

First: Cc1cc(CNc2cc(C3=CCCN(C(=O)CCn4ccnn4)C3)cc3cc(C(=O)N(C)C)oc23)n(C)n1 [Example I-894]
Second: COc1ccccc1-c1cc(C2=CCCN(C(=O)CCn3ccnn3)C2)c(F)c2[nH]c(C(=O)N3CCc4cc(C(F)(F)F)ccc4C3)cc12 [Example I-977]
The IC50 of the first is higher: 100 to 1000 nM for the first, less than 100 nM for the second.

First: COc1cccnc1N1CCN(C(=O)c2cc3c(-c4cccc(Cl)c4OC)cc(C4=CCCN(C(=O)CCn5ccnn5)C4)c(F)c3[nH]2)CC1 [Example I-411]
Second: COc1ccc(Cl)c(-c2cc(C3=CCCN(C(=O)CCn4ccnn4)C3)cc3[nH]c(C(=O)N(C)C)cc23)c1 [Example I-1062]
The IC50 of the first is higher: greater than 100000 nM for the first, less than 100 nM for the second.

Compared with `COc1ccccc1-c1cc(C2=CCCN(C(=O)CCn3ccnn3)C2)c(F)c2[nH]c(C(=O)N3CCN(c4c(OC)cccc4Oc4ccccc4)CC3)cc12` [Example I-414], `CN(C)C(=O)c1cc2c(-c3cc4cc[nH]c4cc3Cl)cc(C3=CCCN(C(=O)CCn4ccnn4)C3)cc2[nH]1` [Example I-1066] is lower in IC50: 100 to 1000 nM for the first, less than 100 nM for the second. The second is the more potent here.

`COc1cc(F)cnc1N1CCN(C(=O)c2cc3c(C4=CCN(c5ccccn5)CC4)cc(C4=CCCN(C(=O)CCn5ccnn5)C4)c(F)c3[nH]2)CC1` [Example I-1117] and `COc1ncccc1-c1cc(C2=CCCN(C(=O)CCn3ccnn3)C2)c(F)c2[nH]c(C(=O)N3CCN(C4CC4)CC3)cc12` [Example I-602] cannot be ordered by IC50: less than 100 nM for the first, less than 100 nM for the second.

First: CCn1nccc1-c1cc(C2=CCCN(C(=O)CCn3ccnn3)C2)c(F)c2[nH]c(C(=O)N3CCN(c4ncccc4OC)CC3)cc12 [Example I-582]
Second: COc1cc(F)cnc1N1CCN(C(=O)c2cc3c(Cl)cc(C4=CCCN(C(=O)CCn5ccnn5)C4)c(F)c3[nH]2)CC1 [Example I-499]
The IC50 of the first is lower: less than 100 nM for the first, 10000 to 100000 nM for the second.

Going from `COc1cc(F)c(F)cc1-c1cc(C2=CCCN(C(=O)CCn3ccnn3)C2)c(F)c2[nH]c(C(=O)N3CCN(C4CC4)CC3)cc12` [Example I-604] to `CN(C)C(=O)c1cc2c(F)c(C3=CCCN(C(=O)[C@H]4Cc5ccccc5CN4C=O)C3)ccc2o1` (single isomer, unassigned) [Example I-376], the IC50 rises from less than 100 nM to greater than 100000 nM.

First: COc1ccccc1-c1cc(C2=CCCN(C(=O)CCn3ccnn3)C2)c(F)c2[nH]c(C(=O)N3CCC4(CC3)OCCO4)cc12 [Example I-1000]
Second: COc1ccccc1-c1cc(C2=CCCN(C(=O)CCn3ccnn3)C2)c(F)c2[nH]c(C(=O)N3CCN(c4cc(C)cc(Br)c4OC)CC3)cc12 [Example I-964]
The IC50 of the first is lower: less than 100 nM for the first, 100 to 1000 nM for the second.

`COCOc1cc(F)ccc1-c1cc(C2=CCCN(C(=O)CCn3ccnn3)C2)c(F)c2[nH]c(C(=O)N3CCN(c4ncc(F)cc4OC)CC3)cc12` [Example I-670] and `Cc1ccccc1-c1cc(C2=CCCN(C(=O)CCn3ccnn3)C2)cc2cc(C(=O)N(C)C)oc12` [Example I-1086] cannot be ordered by IC50: less than 100 nM for the first, less than 100 nM for the second.

Compared with `CCOc1ccncc1-c1cc(C2=CCCN(C(=O)CCn3cccn3)C2)c(F)c2[nH]c(C(=O)N3CCN(c4cncnc4OC)CC3)cc12` [Example I-486], `CN(C)C(=O)c1cc2cc(C3=CCCN(C(=O)CCn4ccnn4)C3)cc(CN3CCCCC3)c2o1` [Example I-1178] is higher in IC50: less than 100 nM for the first, 100 to 1000 nM for the second. The first is the more potent here.

`COc1cc(F)cnc1N1CCN(C(=O)c2cc3c(-c4cccc5cnccc45)cc(C4=CCCN(C(=O)CCn5ccnn5)C4)c(F)c3[nH]2)CC1` [Example I-1119] and `COc1ccccc1N1CCN(C(=O)c2cc3c(-c4cnc5ccccc5c4OC)cc(C4=CCCN(C(=O)CCn5ccnn5)C4)c(F)c3[nH]2)CC1` [Example I-448] cannot be ordered by IC50: less than 100 nM for the first, less than 100 nM for the second.

First: COc1ccccc1N1CCN(C(=O)c2cc3c(-c4cc(F)cc(F)c4OC)cc(C4=CCCN(C(=O)CCn5ccnn5)C4)c(F)c3[nH]2)CC1 [Example I-601]
Second: CCC1=C(c2cc(C3=CCCN(C(=O)CCn4ccnn4)C3)c(F)c3[nH]c(C(=O)N4CCN(c5ncc(F)cc5OC)CC4)cc23)CCCC1 [Example I-1172]
The IC50 of the first is lower: less than 100 nM for the first, 100 to 1000 nM for the second. The first is the more potent here.

Compared with `CN(C)C(=O)c1cc2ccc(C3CCCN(C(=O)CCn4ccnn4)C3)cc2[nH]1` (centres unmarked) [Example I-1188], `COc1ccncc1-c1cc(C2=CCCN(C(C)=O)C2)c(F)c2[nH]c(C(=O)N3CCN(c4ccccc4OC)CC3)cc12` [Example I-409] is higher in IC50: 100 to 1000 nM for the first, greater than 100000 nM for the second.

`COc1cc(F)cnc1N1CCN(C(=O)c2cc(-c3cccnc3OC)c3c(c2)cc(C2=CCCN(C(=O)CCn4ccnn4)C2)n3CC2CC2)CC1` [Example I-726] and `CCc1ccncc1-c1cc(C2=CCCN(C(=O)CCn3ccnn3)C2)c(F)c2[nH]c(C(=O)N3CCN(c4ncc(F)cc4OC)CC3)cc12` [Example I-476] cannot be ordered by IC50: less than 100 nM for the first, less than 100 nM for the second.

`COc1cc(F)cnc1N1CCN(C(=O)c2cc3c(-c4ccc(C(F)F)cc4)cc(C4=CCCN(C(=O)CCn5ccnn5)C4)c(F)c3[nH]2)CC1` [Example I-1160] and `O=C(CCn1ccnn1)N1CCC=C(c2cc(-c3ccccc3OC3CC3)c3cc(C(=O)N4CCN(c5ncccc5OC5CC5)CC4)[nH]c3c2F)C1` [Example I-477] cannot be ordered by IC50: less than 100 nM for the first, less than 100 nM for the second.

`CN(C)C(=O)c1cc2cc(C3=CCCN(C(=O)CCn4ccnn4)C3)cc(-c3cccc4c3CN(C)C4=O)c2o1` [Example I-845] and `COc1cc(F)cnc1N1CCN(C(=O)c2cc3c(-c4ccc(CN5CCOCC5)cc4)cc(C4=CCCN(C(=O)CCn5ccnn5)C4)c(F)c3[nH]2)CC1` [Example I-1122] cannot be ordered by IC50: less than 100 nM for the first, less than 100 nM for the second.

`COc1cc(F)cnc1N1CCN(C(=O)c2cc3c(C4=CCC(N5CCOCC5)CC4)cc(C4=CCCN(C(=O)CCn5ccnn5)C4)c(F)c3[nH]2)CC1` (centres unmarked) [Example I-1153] and `COc1ccncc1-c1cc(C2=CCCN(C(=O)CCn3ccnn3)C2)c(F)c2[nH]c(C(=O)N3CCN(c4nccnc4OC)CC3)cc12` [Example I-441] cannot be ordered by IC50: less than 100 nM for the first, less than 100 nM for the second.

`COc1ccncc1-c1cc(C2=CCCN(C(=O)CCn3cccn3)C2)c(F)c2[nH]c(C(=O)N3CCN(c4ncc(F)cc4OC)CC3)cc12` [Example I-664] and `O=C(CCn1ccnn1)N1CCC=C(c2cc(-c3ccccc3)c3cc(C(=O)N4CCN(c5ncccc5OC5CC5)CC4)[nH]c3c2F)C1` [Example I-938] cannot be ordered by IC50: less than 100 nM for the first, less than 100 nM for the second.

Compared with `COc1ccccc1-c1cc(C2=CCCN(C(=O)CCn3ccnn3)C2)c(F)c2[nH]c(C(=O)N3Cc4ncn(C)c4C3)cc12` [Example I-541], `COc1ccccc1-c1cc(C2=CCCN(C(=O)CCn3ccnn3)C2)c(F)c2[nH]c(C(=O)N3CCC(n4c(=O)[nH]c5ncccc54)CC3)cc12` [Example I-981] is higher in IC50: less than 100 nM for the first, 100 to 1000 nM for the second.

First: CCOc1ccncc1-c1cc(C2=CCCN(C(=O)CCn3ccnn3)C2)c(F)c2[nH]c(C(=O)N3CCN(c4ncc(C)nc4OC)CC3)cc12 [Example I-1041]
Second: (R)-5-(1-(2-formyl-1,2,3,4-tetrahydroisoquinoline-3-carbonyl)-1,2,5,6-tetrahydropyridin-3-yl)-7-(2-methoxyphenyl)-N,N-dimethylbenzofuran-2-carboxamide [Example I-804]
The IC50 of the first is lower: less than 100 nM for the first, greater than 100000 nM for the second. The first is the more potent here.

`COc1cc(F)cnc1N1CCN(C(=O)c2cc3c(-c4ccccc4CN4CCOCC4)cc(C4=CCCN(C(=O)CCn5ccnn5)C4)c(F)c3[nH]2)CC1` [Example I-1123] and `COc1ccccc1-c1cc(C2=CCCN(C(=O)CCn3ccnn3)C2)c(F)c2[nH]c(C(=O)N3CCC(=O)C3)cc12` [Example I-1031] cannot be ordered by IC50: less than 100 nM for the first, less than 100 nM for the second.

`COc1ccccc1-c1cc(C2=CCCN(C(=O)CCn3ccnn3)C2)c(F)c2[nH]c(C(=O)N3CCN(c4c(F)ccc5cnccc45)CC3)cc12` [Example I-972] and `COc1ccccc1-c1cc(C2=CCCN(C(=O)CCn3ccnn3)C2)c(F)c2[nH]c(C(=O)N3CCN(c4ncccc4OC(F)(F)F)CC3)cc12` [Example I-331, 1-(5-(7-fluoro-4-(2-methoxyphenyl)-2-(4-(3-(trifluoromethoxy)pyridin-2-yl)piperazine-1-carbonyl)-1H-indol-6-yl)-3,6-dihydropyridin-1(2H)-yl)-3-(1H-1,2,3-triazol-1-yl)propan-1-one] cannot be ordered by IC50: less than 100 nM for the first, less than 100 nM for the second.

First: COc1ccncc1-c1cc(C2CN(C(=O)CCn3ccnn3)CC(F)(F)C2)c(F)c2[nH]c(C(=O)N3CCN(c4ncc(F)cc4OC)CC3)cc12 (centres unmarked) [Example I-513]
Second: CC(=O)N1CCC=C(c2cc(-c3ccc(C(F)(F)F)cc3O)c3cc(C(=O)N(C)C)[nH]c3c2F)C1 [Example I-888]
The IC50 of the first is lower: less than 100 nM for the first, 100 to 1000 nM for the second. The first is the more potent here.

First: COc1cc(F)ccc1-c1cc(C2=CCCN(C(=O)CCn3ccnn3)C2)c(F)c2[nH]c(C(=O)N3CCN(C4CC4)CC3)cc12 [Example I-588]
Second: CN(C)C(=O)c1cc2ccc(C3=CCCN(C(=O)CCn4cccn4)C3)cc2[nH]1 [Example I-826]
The IC50 of the first is lower: less than 100 nM for the first, 100 to 1000 nM for the second.

First: COc1ccncc1-c1cc(C2=CCCN(C(=O)CCn3ccnn3)C2)c(F)c2[nH]c(C(=O)N3CCN(C4CCCCC4)CC3)cc12 [Example I-1149]
Second: COc1ccccc1-c1cc([C@H]2CCCN(C(=O)CCn3ccnn3)C2)c(F)c2[nH]c(C(=O)N(C)C)cc12 [Example I-1195]
The IC50 of the first is lower: less than 100 nM for the first, greater than 100000 nM for the second. The first is the more potent here.

First: Cc1c[nH]c2ncc(-c3cc(C4=CCCN(C(=O)CCn5ccnn5)C4)c(F)c4[nH]c(C(=O)N(C)C)cc34)cc12 [Example I-1101]
Second: COc1cc(Cl)cnc1N1CCN(C(=O)c2cc3c(-c4cnc5ccccc5c4OC)cc(C4=CCCN(C(=O)CCn5ccnn5)C4)c(F)c3[nH]2)CC1 [Example I-1037]
The IC50 of the first is lower: less than 100 nM for the first, 100 to 1000 nM for the second.

`COc1cc(F)cnc1N1CCN(C(=O)c2cc(-c3cccnc3C3CC3)c3[nH]c(C4CCCN(C(=O)CCn5ccnn5)C4)cc3c2)CC1` (centres unmarked) [Example I-1204] and `COc1ccccc1-c1cc(C2=CCCN(C(=O)CCn3ccnn3)C2)c(F)c2[nH]c(C(=O)N3CCN(c4ccc5c(c4)c4ccccc4n5C)CC3)cc12` [Example I-770] fall in the same range of IC50: 1000 to 10000 nM for the first, 1000 to 10000 nM for the second.

`CN(C)C(=O)c1cc2cc(C3=CCCN(C(=O)CCc4nncs4)C3)ccc2o1` [Example I-824] and `COc1cc(F)cnc1N1CCN(C(=O)c2cc3c(-c4cnn(-c5ccccc5)c4)cc(C4=CCCN(C(=O)CCn5ccnn5)C4)c(F)c3[nH]2)CC1` [Example I-671] fall in the same range of IC50: 100 to 1000 nM for the first, 100 to 1000 nM for the second.

`COc1ccccc1-c1cc(C2=CCCN(C(=O)CCn3ccnn3)C2)c(F)c2[nH]c(C(=O)N3CCN(c4ncccc4Oc4ccccc4)CC3)cc12` [Example I-334] and `CNc1ccc(-c2cc(C3=CCCN(C(C)=O)C3)c(F)c3[nH]c(C(=O)N(C)C)cc23)c(OC)c1` [Example I-1092] cannot be ordered by IC50: less than 100 nM for the first, less than 100 nM for the second.
